Results from US12459967B2, “Modulators of 5′-nucleotidase, ecto and the use thereof” (Arcus Biosciences, Inc., priority 2016, dated 2025).

Biological target: T1, human CD73 (Homo sapiens, UniProt P21589)
T1 construct: host or cells: CHO-K1 (suspension pool CHO-CD73)
T1 sequence (P21589 27-549): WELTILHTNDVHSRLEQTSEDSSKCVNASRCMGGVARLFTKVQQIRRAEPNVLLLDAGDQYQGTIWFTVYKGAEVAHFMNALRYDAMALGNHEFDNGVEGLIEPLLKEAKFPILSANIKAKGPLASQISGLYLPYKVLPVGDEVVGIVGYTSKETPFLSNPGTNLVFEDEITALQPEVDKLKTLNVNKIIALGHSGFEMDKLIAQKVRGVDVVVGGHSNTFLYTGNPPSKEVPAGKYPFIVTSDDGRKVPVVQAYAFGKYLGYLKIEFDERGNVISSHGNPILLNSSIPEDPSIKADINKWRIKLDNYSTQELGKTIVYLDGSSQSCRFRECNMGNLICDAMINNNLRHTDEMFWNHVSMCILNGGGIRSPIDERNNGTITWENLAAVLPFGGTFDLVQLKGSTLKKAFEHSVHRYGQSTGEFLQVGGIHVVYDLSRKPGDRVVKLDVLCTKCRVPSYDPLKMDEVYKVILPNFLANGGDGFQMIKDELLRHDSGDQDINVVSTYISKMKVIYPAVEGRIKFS
Assay: Inhibition of ecto-5′-nucleotidase (CD73) activity in CHO-CD73 cells, phosphate colorimetric readout
Assay type: cell-based
Details: CHO-K1 cells stably transfected with human CD73, 2500 cells per well, 25 μM AMP substrate, 50 minutes incubation at 37° C.; read-out: Potency: CD73 IC50
Description: Inhibition of Ecto-5′-nucleotidase Activity. Compounds were evaluated to determine their ecto-5′-nucleotidase (CD73) inhibitory activity. Briefly, CHO-K1 cells stably transfected with human CD73 were generated by LakePharma (Belmont, CA) using molecular cloning of human CD73 (http://www.uniprot.org/uniprot/P21589) and mammalian transient expression vector (P21589.1). After antibiotic selection in CD OptiCHO cell media (Invitrogen, Catalog #12681-011) containing 5 μg/mL Puromycin and 200 μg/mL Hygromycin B, a suspension pool of CHO-CD73 cells was collected and frozen in 7.5% DMSO in cell media without antibiotics.
On the day of the experiment, one vial of CHO-CD73 cells was thawed and suspended in assay media which consisted of 20 mM HEPES, pH 7.4, 137 mM NaCl, 5.4 mM KCl, 1.3 mM CaCl2), 4.2 mM NaHCO3 and 0.1% glucose. To test the ability of compounds to inhibit CD73 enzymatic activity, 2 μL of 500 μM of compounds dissolved in DMSO (50×) were added to a 96-well polystyrene plate containing 58 μL of assay buffer. Next, 20 μL of CHO-CD73 cells in assay buffer were added to assay plate followed by 20 μL of 125 μM AMP (Adenosine 5′-monophosphate monohydrate) in assay buffer. Final assay conditions consisted of 2500 cells per well in 2% DMSO and 25 μM of AMP substrate. After 50 minutes of incubation (37° C. and 5% CO2) and centrifugation at 225×g for 5 mins, 80 μL of supernatant were transferred to a 96-well Spectra Plate (PerkinElmer, cat #6005640) which was pre-dispensed with 20 μL of PiColorLock Gold colorimetric assay reagents (Thermo, cat #30 300 30). The amount of inorganic phosphate was determined by reading the absorbance at 620 nm on an EnVision Multilabel Plate Reader (PerkinElmer). Enzymatic activity of CD73 was based on the amount of phosphate generated. Percentage of activity was calculated based on DMSO and no cells control wells. IC50 values of compounds were determined by four parameter non-linear regression fitting of percentage of activity in GraphPad Prism software.

| SMILES | IC50 [nM] |
| --- | --- |
| O=P(O)(O)CP(=O)(O)OC[C@H]1O[C@@H](n2cnc3c(NCc4ccc(Br)cc4)ncnc32)[C@H](O)[C@@H]1O | < 100 |
| CC(C)(C)c1ccc(CNc2ncnc3c2ncn3[C@@H]2O[C@H](COP(=O)(O)CP(=O)(O)O)[C@@H](O)[C@H]2O)cc1 | < 100 |
| O=P(O)(O)CP(=O)(O)OC[C@H]1O[C@@H](n2cnc3c(NCc4ccc(-c5ccccc5)cc4)ncnc32)[C@H](O)[C@@H]1O | < 100 |
| O=P(O)(O)CP(=O)(O)OC[C@H]1O[C@@H](n2cnc3c(NCc4ccc(C(F)(F)F)cc4)ncnc32)[C@H](O)[C@@H]1O | < 100 |
| C[C@@H](Nc1nc(Cl)nc2c1cnn2[C@@H]1O[C@H](COP(=O)(O)CP(=O)(O)O)[C@@H](O)[C@H]1O)c1ccccc1 | < 100 |
| O=P(O)(O)CP(=O)(O)OC[C@H]1O[C@@H](n2ncc3c(NCc4ccc(Cl)cc4)nc(Cl)nc32)[C@H](O)[C@@H]1O | < 100 |
| C[C@H](Nc1nc(Cl)nc2c1cnn2[C@@H]1O[C@H](COP(=O)(O)CP(=O)(O)O)[C@@H](O)[C@H]1O)c1ccccc1F | < 100 |
| C[C@@H](Nc1nc(Cl)nc2c1cnn2[C@@H]1O[C@H](COP(=O)(O)CP(=O)(O)O)[C@@H](O)[C@H]1O)c1ccccc1F | < 100 |
| C[C@H](Nc1nc(Cl)nc2c1cnn2[C@@H]1O[C@H](COP(=O)(O)CP(=O)(O)O)[C@@H](O)[C@H]1O)c1cccc(F)c1 | < 100 |
| C[C@@H](Nc1nc(Cl)nc2c1cnn2[C@@H]1O[C@H](COP(=O)(O)CP(=O)(O)O)[C@@H](O)[C@H]1O)c1cccc(F)c1 | < 100 |
| C[C@H](Nc1nc(Cl)nc2c1cnn2[C@@H]1O[C@H](COP(=O)(O)CP(=O)(O)O)[C@@H](O)[C@H]1O)c1ccc(F)cc1 | < 100 |
| C[C@@H](Nc1nc(Cl)nc2c1cnn2[C@@H]1O[C@H](COP(=O)(O)CP(=O)(O)O)[C@@H](O)[C@H]1O)c1ccc(F)cc1 | < 100 |
| O=P(O)(O)CP(=O)(O)OC[C@H]1O[C@@H](n2ncc3c(NCc4ccccc4Cl)nc(Cl)nc32)[C@H](O)[C@@H]1O | < 100 |
| CN(Cc1ccccc1Cl)c1nc(Cl)nc2c1cnn2[C@@H]1O[C@H](COP(=O)(O)CP(=O)(O)O)[C@@H](O)[C@H]1O | < 100 |
| O=P(O)(O)CP(=O)(O)OC[C@H]1O[C@@H](n2ncc3c(NCCc4ccccc4Cl)nc(Cl)nc32)[C@H](O)[C@@H]1O | < 100 |
| CN(Cc1ccccc1)c1nc(Cl)nc2c1cnn2[C@@H]1O[C@H](COP(=O)(O)CP(=O)(O)O)[C@@H](O)[C@H]1O | < 100 |
| CN(c1nc(Cl)nc2c1cnn2[C@@H]1O[C@H](COP(=O)(O)CP(=O)(O)O)[C@@H](O)[C@H]1O)C1CCCC1 | < 100 |
| CNc1nc(Cl)nc2c1cnn2[C@@H]1O[C@H](COP(=O)(O)CP(=O)(O)O)[C@@H](O)[C@H]1O | < 100 |
| O=P(O)(O)CP(=O)(O)OC[C@H]1O[C@@H](n2ncc3c(N[C@H](c4ccccc4)C(F)(F)F)nc(Cl)nc32)[C@H](O)[C@@H]1O | < 100 |
| O=P(O)(O)CP(=O)(O)OC[C@H]1O[C@@H](n2ncc3c(N[C@H]4CCOC4)nc(Cl)nc32)[C@H](O)[C@@H]1O | < 100 |
| CC(C)OC(=O)OCOP(=O)(O)CP(=O)(OCOC(=O)OC(C)C)OC[C@H]1O[C@@H](n2ncc3c(NC4CCCC4)nc(Cl)nc32)[C@H](O)[C@@H]1O (stereo partly drawn) | > 1000 |
| CC(C)OC(=O)OCOP(=O)(O)CP(=O)(OCOC(=O)OC(C)C)OC[C@H]1O[C@@H](n2ncc3c(N[C@@H](C)c4ccccc4)nc(Cl)nc32)[C@H](O)[C@@H]1O (stereo partly drawn) | > 1000 |
| O=P(O)(O)CP(=O)(O)OC[C@H]1O[C@@H](n2ncc3c(NCc4ccccc4)nc(Cl)nc32)[C@@H](F)[C@@H]1O | < 100 |
| C[C@H](Nc1nc(Cl)nc2c1cnn2[C@@H]1O[C@H](COP(=O)(O)CP(=O)(O)O)[C@@H](O)[C@@H]1F)c1ccccc1 | < 100 |

| SMILES | IC50 [nM] |
| --- | --- |
| C[C@@H](Nc1nc(Cl)nc2c1cnn2[C@@H]1O[C@H](COP(=O)(O)CP(=O)(O)O)[C@@H](O)[C@@H]1F)c1ccccc1 | < 100 |
| C[C@H](Nc1nc(Cl)nc2c1cnn2[C@@H]1O[C@H](COP(=O)(O)CP(=O)(O)O)[C@@H](O)[C@@H]1F)c1ccccc1F | < 100 |
| C[C@@H](Nc1nc(Cl)nc2c1cnn2[C@@H]1O[C@H](COP(=O)(O)CP(=O)(O)O)[C@@H](O)[C@@H]1F)c1ccccc1F | < 100 |
| C[C@H](Nc1nc(Cl)nc2c1cnn2[C@@H]1O[C@H](COP(=O)(O)CP(=O)(O)O)[C@@H](O)[C@@H]1F)c1cccc(F)c1 | < 100 |
| C[C@@H](Nc1nc(Cl)nc2c1cnn2[C@@H]1O[C@H](COP(=O)(O)CP(=O)(O)O)[C@@H](O)[C@@H]1F)c1cccc(F)c1 | < 100 |
| C[C@H](Nc1nc(Cl)nc2c1cnn2[C@@H]1O[C@H](COP(=O)(O)CP(=O)(O)O)[C@@H](O)[C@@H]1F)c1ccc(F)cc1 | < 100 |
| C[C@@H](Nc1nc(Cl)nc2c1cnn2[C@@H]1O[C@H](COP(=O)(O)CP(=O)(O)O)[C@@H](O)[C@@H]1F)c1ccc(F)cc1 | < 100 |
| O=P(O)(O)CP(=O)(O)OC[C@H]1O[C@@H](n2cnc3c(NC4CCCC4)cc(Cl)nc32)[C@H](O)[C@@H]1O | < 100 |
| O=P(O)(O)CP(=O)(O)OC[C@H]1O[C@@H](n2cnc3c(NC4CCCC4)cc(Cl)nc32)[C@@H](F)[C@@H]1O | < 100 |
| O=P(O)(O)CP(=O)(O)OC[C@H]1O[C@@H](n2ncc3c(NC4CCCC4)cc(Cl)nc32)[C@H](O)[C@@H]1O | < 100 |
| C[C@H](Nc1cc(Cl)nc2c1cnn2[C@@H]1O[C@H](COP(=O)(O)CP(=O)(O)O)[C@@H](O)[C@H]1O)c1ccccc1 | < 100 |
| C[C@@H](Nc1cc(Cl)nc2c1cnn2[C@@H]1O[C@H](COP(=O)(O)CP(=O)(O)O)[C@@H](O)[C@H]1O)c1ccccc1 | < 100 |
| C[C@H](Nc1cc(Cl)nc2c1cnn2[C@@H]1O[C@H](COP(=O)(O)CP(=O)(O)O)[C@@H](O)[C@H]1O)c1ccc(F)cc1 | < 100 |
| O=P(O)(O)CP(=O)(O)OC[C@H]1O[C@@H](n2ncc3c(NC4CCCC4)cc(Cl)nc32)[C@@H](F)[C@@H]1O | < 100 |
| C[C@H](Nc1cc(Cl)nc2c1cnn2[C@@H]1O[C@H](COP(=O)(O)CP(=O)(O)O)[C@@H](O)[C@@H]1F)c1ccccc1 | < 100 |
| C[C@@H](Nc1cc(Cl)nc2c1cnn2[C@@H]1O[C@H](COP(=O)(O)CP(=O)(O)O)[C@@H](O)[C@@H]1F)c1ccccc1 | < 100 |
| C[C@H](Nc1nc(Cl)nc2c1ccn2[C@@H]1O[C@H](COP(=O)(O)CP(=O)(O)O)[C@@H](O)[C@H]1O)c1ccccc1F | < 100 |
| C[C@H](Nc1nc(Cl)nc2c1ccn2[C@@H]1O[C@H](COP(=O)(O)CP(=O)(O)O)[C@@H](O)[C@H]1O)c1cccc(F)c1 | < 100 |
| C[C@H](Nc1nc(Cl)nc2c1ccn2[C@@H]1O[C@H](COP(=O)(O)CP(=O)(O)O)[C@@H](O)[C@H]1O)c1ccc(F)cc1 | < 100 |
| C[C@@H](Nc1nc(Cl)nc2c1ccn2[C@@H]1O[C@H](COP(=O)(O)CP(=O)(O)O)[C@@H](O)[C@@H]1F)c1ccccc1 | < 100 |
| C[C@H](Nc1nc(Cl)nc2c1ccn2[C@@H]1O[C@H](COP(=O)(O)CP(=O)(O)O)[C@@H](O)[C@@H]1F)c1ccccc1 | < 100 |
| C[C@H](Nc1nc(Cl)nc2c1ccn2[C@@H]1O[C@H](COP(=O)(O)CP(=O)(O)O)[C@@H](O)[C@@H]1F)c1cccc(F)c1 | < 100 |
| C[C@@H](Nc1nc(Cl)nc2c1ccn2[C@@H]1O[C@H](COP(=O)(O)CP(=O)(O)O)[C@@H](O)[C@@H]1F)c1ccc(F)cc1 | < 100 |
| C[C@H](Nc1nc(Cl)nc2c1ccn2[C@@H]1O[C@H](COP(=O)(O)CP(=O)(O)O)[C@@H](O)[C@@H]1F)c1ccc(F)cc1 | < 100 |
